Drawing on ChEMBL document CHEMBL1139255, “Structure-activity relationship studies of 5-benzylaminoimidazo[1,2-c]pyrimidine-8-carboxamide derivatives as potent, highly selective ZAP-70 kinase inhibitors” (Bioorg Med Chem, 2009), this text covers IC50 and inhibition for four compounds.

Where only a bound is given, the exact number is not on record here.

The target in test [1] is Tyrosine-protein kinase Lck (Homo sapiens, UniProt P06239). Put plainly: Inhibition of Lck.
Test [2] concerns the target T1, Tyrosine-protein kinase ZAP-70 (Homo sapiens, UniProt P43403).
T1 sequence (P43403 whole entry): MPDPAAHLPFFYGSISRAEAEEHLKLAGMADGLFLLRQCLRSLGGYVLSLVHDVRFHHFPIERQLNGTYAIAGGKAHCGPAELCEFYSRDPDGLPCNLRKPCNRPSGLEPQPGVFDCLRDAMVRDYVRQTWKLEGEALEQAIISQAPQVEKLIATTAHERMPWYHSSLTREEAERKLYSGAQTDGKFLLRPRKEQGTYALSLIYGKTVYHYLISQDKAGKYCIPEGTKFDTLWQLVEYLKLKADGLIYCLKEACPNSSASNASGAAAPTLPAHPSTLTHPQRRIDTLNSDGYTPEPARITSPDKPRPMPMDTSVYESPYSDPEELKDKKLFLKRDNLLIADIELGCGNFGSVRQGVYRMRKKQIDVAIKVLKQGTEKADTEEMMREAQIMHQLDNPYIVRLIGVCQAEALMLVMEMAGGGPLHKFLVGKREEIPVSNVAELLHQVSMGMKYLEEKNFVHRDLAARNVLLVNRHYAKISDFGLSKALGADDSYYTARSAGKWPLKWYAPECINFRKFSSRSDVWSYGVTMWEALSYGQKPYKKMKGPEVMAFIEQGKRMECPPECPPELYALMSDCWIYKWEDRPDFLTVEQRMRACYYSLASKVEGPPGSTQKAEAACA
Put plainly: Inhibition of human ZAP70 (Leu325 to Ala619) expressed in Sf9 cells by coupled spectrophotometric enzyme assay. In kind it is cell-based.

Test [3] addresses T2, Epidermal growth factor receptor (Homo sapiens, UniProt P00533). Put plainly: Inhibition of EGFR.
Test [4] addresses Mitogen-activated protein kinase 3 (Homo sapiens, UniProt P27361). Put plainly: Inhibition of ERK1.
In test [5] the target is Protein kinase C beta type (Homo sapiens, UniProt P05771). Put plainly: Inhibition of PKC beta2.
In test [6] the target is Proto-oncogene tyrosine-protein kinase Src (Homo sapiens, UniProt P12931). Put plainly: Inhibition of Src.
The target of test [7] is T3, Mitogen-activated protein kinase 8 (Homo sapiens, UniProt P45983). Put plainly: Inhibition of JNK1.
Test [8] has as its target Mitogen-activated protein kinase 14 (Homo sapiens, UniProt Q16539). Put plainly: Inhibition of p38 alpha.
Test [9] has as its target Tyrosine-protein kinase SYK (Homo sapiens) (UniProt P43405). Put plainly: Inhibition of Syk.
Test [10] deals with T2, Epidermal growth factor receptor. Put plainly: Inhibition of EGFR at 10 uM.
In test [11] the target is T3, Mitogen-activated protein kinase 8. Put plainly: Inhibition of JNK1 at 10 uM.

Chain of Tyrosine-protein kinase Lck (P06239 whole entry): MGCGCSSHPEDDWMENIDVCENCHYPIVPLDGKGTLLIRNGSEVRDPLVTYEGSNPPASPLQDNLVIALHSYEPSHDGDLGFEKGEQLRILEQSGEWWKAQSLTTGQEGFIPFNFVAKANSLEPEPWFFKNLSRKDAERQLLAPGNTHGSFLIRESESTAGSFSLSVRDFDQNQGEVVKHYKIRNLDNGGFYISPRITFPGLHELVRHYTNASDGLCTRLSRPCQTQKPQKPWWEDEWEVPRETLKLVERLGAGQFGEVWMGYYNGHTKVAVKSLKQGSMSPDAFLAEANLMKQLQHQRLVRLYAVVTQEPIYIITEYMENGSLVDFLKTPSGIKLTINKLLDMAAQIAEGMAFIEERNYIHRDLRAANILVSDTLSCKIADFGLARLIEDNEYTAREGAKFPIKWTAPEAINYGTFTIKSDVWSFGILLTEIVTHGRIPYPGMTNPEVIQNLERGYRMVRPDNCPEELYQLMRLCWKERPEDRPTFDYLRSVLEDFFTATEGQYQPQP
Chain of Protein kinase C beta type (P05771 whole entry): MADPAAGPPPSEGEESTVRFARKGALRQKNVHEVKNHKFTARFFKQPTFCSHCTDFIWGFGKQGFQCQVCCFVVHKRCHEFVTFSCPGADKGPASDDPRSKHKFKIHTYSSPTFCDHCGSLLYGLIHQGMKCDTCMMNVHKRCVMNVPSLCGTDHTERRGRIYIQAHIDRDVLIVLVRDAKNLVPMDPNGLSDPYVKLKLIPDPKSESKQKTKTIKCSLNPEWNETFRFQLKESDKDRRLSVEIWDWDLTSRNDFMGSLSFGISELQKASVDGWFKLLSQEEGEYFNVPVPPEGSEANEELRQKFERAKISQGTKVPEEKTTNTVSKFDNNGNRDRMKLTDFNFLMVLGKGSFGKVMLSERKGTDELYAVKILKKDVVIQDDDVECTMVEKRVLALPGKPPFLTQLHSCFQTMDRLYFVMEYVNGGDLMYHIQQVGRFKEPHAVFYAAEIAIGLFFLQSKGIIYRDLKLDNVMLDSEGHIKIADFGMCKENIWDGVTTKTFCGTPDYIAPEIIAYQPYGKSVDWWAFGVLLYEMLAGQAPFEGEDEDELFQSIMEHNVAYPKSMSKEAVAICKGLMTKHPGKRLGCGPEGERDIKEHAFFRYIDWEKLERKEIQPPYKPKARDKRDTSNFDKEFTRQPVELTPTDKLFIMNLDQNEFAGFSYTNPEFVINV
Chain of Mitogen-activated protein kinase 14 (Q16539 whole entry): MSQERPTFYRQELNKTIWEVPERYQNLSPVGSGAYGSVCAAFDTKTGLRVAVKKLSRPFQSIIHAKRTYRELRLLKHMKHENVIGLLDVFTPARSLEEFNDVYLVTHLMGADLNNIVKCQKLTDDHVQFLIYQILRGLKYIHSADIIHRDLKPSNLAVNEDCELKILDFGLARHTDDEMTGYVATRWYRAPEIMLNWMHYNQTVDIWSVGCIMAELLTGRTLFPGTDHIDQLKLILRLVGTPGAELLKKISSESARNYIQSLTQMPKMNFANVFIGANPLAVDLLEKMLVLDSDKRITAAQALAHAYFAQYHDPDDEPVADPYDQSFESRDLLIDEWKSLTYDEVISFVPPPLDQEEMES
T2 sequence (P00533 whole entry): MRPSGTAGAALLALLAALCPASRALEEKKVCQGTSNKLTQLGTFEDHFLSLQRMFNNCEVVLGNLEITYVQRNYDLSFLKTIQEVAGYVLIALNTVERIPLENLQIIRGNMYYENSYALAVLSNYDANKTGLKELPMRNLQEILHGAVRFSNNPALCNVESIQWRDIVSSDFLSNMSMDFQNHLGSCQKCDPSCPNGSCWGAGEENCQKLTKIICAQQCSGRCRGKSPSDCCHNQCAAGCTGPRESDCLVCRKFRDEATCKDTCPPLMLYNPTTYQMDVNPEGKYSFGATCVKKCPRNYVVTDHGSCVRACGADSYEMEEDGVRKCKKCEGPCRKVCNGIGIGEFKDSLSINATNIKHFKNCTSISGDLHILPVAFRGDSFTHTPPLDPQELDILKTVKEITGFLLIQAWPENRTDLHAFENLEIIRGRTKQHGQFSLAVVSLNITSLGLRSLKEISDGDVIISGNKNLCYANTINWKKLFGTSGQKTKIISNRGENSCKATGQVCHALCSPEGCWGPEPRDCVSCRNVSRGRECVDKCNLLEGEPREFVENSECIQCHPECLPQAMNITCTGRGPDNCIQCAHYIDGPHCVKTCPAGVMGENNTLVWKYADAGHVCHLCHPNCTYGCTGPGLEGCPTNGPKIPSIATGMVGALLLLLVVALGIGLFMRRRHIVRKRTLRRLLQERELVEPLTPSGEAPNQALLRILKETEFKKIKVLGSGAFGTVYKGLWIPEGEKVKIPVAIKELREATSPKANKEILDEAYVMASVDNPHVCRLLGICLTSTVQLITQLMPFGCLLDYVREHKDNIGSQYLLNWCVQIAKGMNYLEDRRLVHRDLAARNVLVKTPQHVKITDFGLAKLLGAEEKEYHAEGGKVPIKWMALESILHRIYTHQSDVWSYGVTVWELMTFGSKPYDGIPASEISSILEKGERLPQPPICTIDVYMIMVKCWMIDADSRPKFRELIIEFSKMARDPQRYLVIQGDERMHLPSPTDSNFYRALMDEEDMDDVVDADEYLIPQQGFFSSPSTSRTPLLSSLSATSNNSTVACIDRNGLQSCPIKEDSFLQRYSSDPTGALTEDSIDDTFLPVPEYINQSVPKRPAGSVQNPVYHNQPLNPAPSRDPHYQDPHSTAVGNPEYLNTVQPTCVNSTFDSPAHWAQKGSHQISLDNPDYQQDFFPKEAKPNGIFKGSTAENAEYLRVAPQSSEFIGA
Chain of Mitogen-activated protein kinase 3 (P27361 whole entry): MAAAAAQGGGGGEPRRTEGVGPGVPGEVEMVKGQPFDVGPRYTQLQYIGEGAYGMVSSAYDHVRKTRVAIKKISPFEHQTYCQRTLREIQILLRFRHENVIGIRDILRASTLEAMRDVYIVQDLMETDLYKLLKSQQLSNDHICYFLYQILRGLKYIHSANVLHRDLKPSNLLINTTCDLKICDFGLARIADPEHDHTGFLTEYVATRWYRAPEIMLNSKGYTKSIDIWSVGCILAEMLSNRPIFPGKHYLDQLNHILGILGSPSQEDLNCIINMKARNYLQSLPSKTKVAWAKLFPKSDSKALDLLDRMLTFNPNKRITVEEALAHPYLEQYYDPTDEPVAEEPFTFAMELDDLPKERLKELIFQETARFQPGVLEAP
Chain of Proto-oncogene tyrosine-protein kinase Src (P12931 2-536 limits assumed): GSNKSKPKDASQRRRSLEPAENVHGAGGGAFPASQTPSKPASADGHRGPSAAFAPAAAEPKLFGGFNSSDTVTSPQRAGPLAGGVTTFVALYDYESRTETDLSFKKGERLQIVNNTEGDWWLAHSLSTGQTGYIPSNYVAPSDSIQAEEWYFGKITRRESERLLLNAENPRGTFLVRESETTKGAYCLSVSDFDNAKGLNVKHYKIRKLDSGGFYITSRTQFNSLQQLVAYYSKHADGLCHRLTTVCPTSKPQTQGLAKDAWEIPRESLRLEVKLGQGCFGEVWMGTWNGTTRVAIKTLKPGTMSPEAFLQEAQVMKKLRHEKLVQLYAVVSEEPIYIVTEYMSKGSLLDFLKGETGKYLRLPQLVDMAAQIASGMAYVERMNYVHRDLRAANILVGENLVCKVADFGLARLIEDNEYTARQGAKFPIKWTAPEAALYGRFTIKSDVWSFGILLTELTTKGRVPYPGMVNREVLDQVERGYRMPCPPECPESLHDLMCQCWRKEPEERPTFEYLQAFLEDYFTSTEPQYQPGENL
T3 sequence (P45983 whole entry): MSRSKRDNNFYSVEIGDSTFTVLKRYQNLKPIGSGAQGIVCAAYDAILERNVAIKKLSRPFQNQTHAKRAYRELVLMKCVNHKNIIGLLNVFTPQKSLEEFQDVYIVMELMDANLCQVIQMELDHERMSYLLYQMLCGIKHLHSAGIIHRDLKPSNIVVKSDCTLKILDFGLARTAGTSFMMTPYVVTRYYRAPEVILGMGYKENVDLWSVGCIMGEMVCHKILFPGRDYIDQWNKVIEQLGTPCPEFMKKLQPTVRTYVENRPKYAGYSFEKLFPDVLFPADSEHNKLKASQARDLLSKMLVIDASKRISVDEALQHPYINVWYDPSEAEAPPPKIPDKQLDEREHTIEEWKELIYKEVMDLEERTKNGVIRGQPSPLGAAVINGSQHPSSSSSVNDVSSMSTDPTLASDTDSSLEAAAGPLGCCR

For `COc1cc(Nc2nc(NCc3ccccc3)n3ccnc3c2C(N)=O)cc(OC)c1`, the IC50 (in general, the concentration that inhibits the measured activity by half) is above 25 µM in test [1] and 0.4 µM in test [2].
As for `CCOC(=O)/C=C/c1ccc(CNc2nc(Nc3cc(OC)cc(OC)c3)c(C(N)=O)c3nccn23)cc1`, the IC50 in [3] was above 10 µM; in [1], above 12.5 µM; in test [4], above 10 µM; in test [5], above 10 µM; in test [6], above 10 µM; in test [7], above 10 µM. For the same compound, the IC50 is 0.088 µM in test [2] and above 10 µM in test [8].
As to `CC(=O)N[C@@H](Cc1ccc(OP(=O)(O)O)cc1)C(=O)N[C@@H](CO)c1nc(Cc2ccc(C(F)(F)F)cc2)no1`, the IC50 in test [9] is above 500 µM.
Consider `COc1cc(Nc2nc(NCc3ccc(/C=C/C(=O)O)cc3)n3ccnc3c2C(N)=O)cc(OC)c1`, for which the IC50 was above 10 µM in [1]; above 10 µM in test [4]; above 10 µM in [5]; above 10 µM in test [6]; 0.047 µM in test [2]; above 10 µM in test [8]. Further, the inhibition (in general, the relative decrease from the control value, in per cent) in test [10] is 89%; in test [11] it was 90%.
